Measured values reported in patent publication US11583570B2, “Use of autoinducer-related pathway in inducing apoptosis and anti-infective therapy” (TSINGHUA UNIVERSITY, priority 2017, dated 2023).

Tests used:
[1] = tested on: transformed DC line DC2.4; experiment: Annexin V/PI apoptosis detection, DC2.4; type: cell-based
Description: (§1) Cell apoptosis was detected with Annexin V/PI apoptosis detection Kit. Briefly, cells were stimulated with HSLs or left untreated. 6 hrs later, cells were collected and stained with Annexin VFITC and PI for 15 min at RT, then the apoptotic effect was measured by flow cytometry. OT-I or OT-II splenocytes were pulsed with specific peptides or PMA and ionomycin mixture with or without HSLs or TNF α plus cycloheximide. 24 hrs later, cells and supernatants were collected separately. For OT-I activation, cells were stained with CD69 and CD8. For OT-II activation, cells were stained with CD69 and CD4. Cell activation was measured by flow cytometry. All supernatants were detected for IL-2 secretion by ELISA.

THP-1 cell line = experiment: Annexin V/PI apoptosis detection, THP-1; type: cell-based, human; details: THP-1
Description: as §1
In order to verify TNFR1-FADD-caspase8-caspase3 pathway inhibitor can block immunocyte apoptosis caused by 3OC12-HSL clinically. The inventors use a clinical version of caspase inhibitor Emricasan as a test. […] To be specific, in a 12 plate, THP-1 cells were cultured with indicated concentrations of 3OC and Emricasan. After 1 hr, cells were collection for flow cytometric analysis of AnnexinV and PI. […] In FIG. 17b, live cell percentage of different treatment were enumerated by flow cytometry. Bar graphs of live cell percentage are depicted by mean±SEM. Then samples prepared as in FIG. 17a and FIG. 17b were used for WB analysis for the activation (cleavage) of Caspase 8 and 3. […]

[2] = tested on: thioglycolate-induced macrophages; experiment: Annexin V/PI apoptosis detection, macrophages; type: cell-based
Description: as §1

[3] = tested on: FADD in complex with caspase 8; experiment: FADD / caspase 8 co-immunoprecipitation; type: cell-based; details: following 3OC12 HSL treatment
Description: For FADD immunoprecipitation, 4 μg anti-mouse FADD pAb (Santa Cruz, H-181) were incubated with 100 μl protein A/G agarose for 2 hrs at RT. 3 million/ml purified CD4 T cells were stimulated with HSLs or left untreated. The cells were then collected and lysed with IP lysis buffer (50 mM HEPES pH 7.4, 150 mM NaCl, 1% NP-40, 1 mM EDTA, 1 mM PMSF, 1 mM NaF, 1 mM NaVO3 and protease inhibitor cocktails). The cell lysates were added into antibody-bead mixtures for 3 hrs at 4° C. Beads were then collected by low speed centrifugation (1000 g, 5 min) and washed 4 times with IP lysis buffer (300 mM NaCl added). After the last wash, pellets were suspended with 70 ul 2×SDS loading buffer and boiled for 5 min. For caspase 8 immunoprecipitation, 4 μg anti-Caspase 8 pAb (Santa Cruz, C-20) was incubated with 100 μl protein A/G agarose for 1 hr at RT. 3 million/ml H9 cells were treated with HSLs or left untreated. The samples were processed as in FADD IP. For cross-linking assay, CD4+ T cells isolated from C57BL/6 mice spleen or human THP-1 cells was stimulated with HSLs or left untreated, then cells were collected and cross-linked by 10 mM DTSSP at RT for 30 min and quenched with 1M Tris-HCl (pH7.5) for 15 min. […]

Iκbα = Iκbα degradation in non-apoptotic Jurkat cells; type: cell-based
EGFR = experiment: MSFQ, EGFR dimerization; type: cell-based, human; details: in comparison with the carrier treatment
Description: Single molecule photo-bleaching step counting: 0.5 μg TNFR1(1-293)-peGFP-N1 plasmid or 0.5 μg EGFR-peGFP-N1 plasmid was transfected into HeLa cells and cultured for 5-6 hrs. Then the cells were stimulated with HSLs, TNF α, or left untreated, and washed twice with PBS and fixed with 4% paraformaldehyde before imaging. GFP was excited at 488 nm with a laser power of 5 mW measured after the laser passing through the objective. The collected fluorescent signal was gated by a band-pass filter HQ 525/50 (Chroma Technology). The EM gain of the EMCCD camera was set at 300. Movies of 400 frames were acquired for each sample at a full-frame rate of 10 Hz. For imaging analysis, the background fluorescence was firstly subtracted from the movie acquired from the fixed cells using the rolling ball method in Image J software, and regions of interest on movies were selected manually according to the outline of cells. To analyze the bleaching steps, the fluorescence time courses of each fluorescent spots were first constructed by Image J plugin and bleaching steps were then counted manually.

CCCCCCCCCC(=O)CC(=O)N[C@H]1CCOC1=O [3OC12 HSL, N-(3-oxo-dodecanoyl) homoserine lactone]
sensitivity to 3OC12 HSL [1]: sensitive | sensitivity to 3OC12 HSL (THP-1 cell line): sensitive | sensitivity to 3OC12 HSL [2]: relatively resistant | FADD association with caspase 8 [3]: in complex with caspase 8 | Iκbα degradation (Iκbα): degraded | EGFR dimerization (EGFR): increased the dimerization
